Consider three compounds from patent US5710174A, “Factor XIIIA inhibitor” (Zymo Genetics, Inc., priority 1995, dated 1998).

Like-named read-outs stand apart in the source and are kept apart here.

One test deals with T1, FXIIIa (Homo sapiens, UniProt P00488).
T1 sequence (P00488 39-732 limits assumed): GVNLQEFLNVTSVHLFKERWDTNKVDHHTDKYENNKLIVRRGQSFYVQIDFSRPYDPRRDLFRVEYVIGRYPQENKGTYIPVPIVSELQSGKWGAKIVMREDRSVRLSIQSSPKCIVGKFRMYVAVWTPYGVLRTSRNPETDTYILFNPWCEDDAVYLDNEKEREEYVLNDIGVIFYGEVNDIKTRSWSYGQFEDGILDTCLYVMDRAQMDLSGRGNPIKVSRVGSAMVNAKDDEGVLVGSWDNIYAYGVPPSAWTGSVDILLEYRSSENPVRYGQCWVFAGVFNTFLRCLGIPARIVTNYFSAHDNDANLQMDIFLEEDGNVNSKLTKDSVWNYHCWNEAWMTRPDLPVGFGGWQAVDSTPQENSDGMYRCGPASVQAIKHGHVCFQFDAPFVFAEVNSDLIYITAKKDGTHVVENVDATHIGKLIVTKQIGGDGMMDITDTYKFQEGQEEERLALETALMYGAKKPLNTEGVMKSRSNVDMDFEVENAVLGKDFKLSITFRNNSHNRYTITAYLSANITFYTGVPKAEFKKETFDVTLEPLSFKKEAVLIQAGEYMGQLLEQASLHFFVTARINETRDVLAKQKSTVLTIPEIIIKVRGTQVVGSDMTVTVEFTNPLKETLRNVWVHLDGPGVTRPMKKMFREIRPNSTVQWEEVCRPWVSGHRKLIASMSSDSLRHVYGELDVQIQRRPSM
The test is described as follows: Fibrinogen clotting assay, FXIIIa (gamma-gamma bands scanned). It is filed as biochemical. As to conditions: read-out: % FXIIIa Inhibition. As for the experimental part: (§1) Clots were formed in 1.5 ml Eppendorf tubes by adding reagents to give the following final assay concentrations in a total volume of 100 μl: 2 mg/ml FXIII-free fibrinogen purified on a rabbit anti-FXIII column (Enzyme Research Labs); 20 mM CaCl2; 1 unit/ml thrombin (bovine, Enzyme Research Labs); and either 1 μg/ml FXIIIa (recombinant human FXIIIa2 (ZymoGenetics)) or 20 μg/ml tTG (Sigma) in 120 mM NaCl plus 25 mM Tris at about pH 7.2. In addition, 10 μl of one of the following was added to each tube in varying concentrations to determine a dose response: iodoacetamide, ZG-1400a or cerulenin. The final reaction volume in each Eppendorf tube was adjusted to 100 μl with 120 mMNaCl plus 25 mM Tris at about pH 7.2.
(§2) A positive (complete cross-linking) control contained fibrinogen, enzyme (FXIIIa or tTG), calcium, and thrombin at final assay concentrations listed above, and was tested in the absence of any inhibitor. A negative (no cross-linking) control contained a solution of FXIII-free fibrinogen, thrombin and 20 μM EDTA [(ethylene dinitrilo)tetraacetic acid, disodium salt, dihydrate (J. T. Baker, Phillipsburg, N.J.)] in the absence of calcium and enzyme. Both positive and negative controls contained a final DMSO concentration of 1%. The FXIIIa-treated clots and their controls were incubated for about 10 min at about 37° C., while the tTG-treated clots and their controls were incubated for about 4 h at about 37° C. After incubation, all of the clots and controls were frozen to quench reactions.
(§3) Frozen clots and controls were boiled for about 3 min, centrifuged at 14,000 RPM for 5 min, and then the supernatant was removed. The clots were resuspended in 100 μl lysis buffer and incubated overnight at 37° C. The lysis buffer Contained 10M urea, 10 mM EDTA, 1% sodium dodecyl sulfate ("SDS"), and 1% 2-mercaptoethanol. After incubation, approximately 5 μl of each sample was brought to a final volume of 20 μl with a reducing sample buffer (containing 125 mM Tris, pH 6.8, 20% glycerol, 4% SDS, 10% 2-mercaptoethanol, and 0.025% bromophenol blue), and applied to 4-15% gradient gels (Integrated Separation Systems, Natick, Mass.) for polyacrylamide electrophoresis (PAGE) at 200 volts for approximately 1 h or until the tracking dye reached the bottom of the gel.
(§4) After staining with Coomassie blue, the alpha, beta, and gamma chains of fibrin were visualized as bands on the gel. The presence of FXIIIa-catalyzed fibrin cross-linking was observed by the appearance of a gamma-gamma dimer, and the disappearance of the monomeric gamma band from the gels. The tTG cross-linking occurs by formation of alpha chain polymers and alpha2 -gamma oligomers. Since there are many bands, they are difficult to visualize. A better indication of tTG cross-linking was the disappearance of the monomeric alpha band from the gels. In addition, the gamma band was reduced, but to a lesser degree than in FXIIIa cross-linked clots.
(§5) The gels were also scanned on a densitometer (Bio Image Whole Band Analyzer, Millipore Corp., Bedford, Mass.). The relative intensity of gamma-gamma bands were scanned and compared for FXIIIa inhibition, while alpha bands were scanned and compared for tTG inhibition. No cross-linkingwas detected in the negative controls containing only FXIII-free fibrinogen thrombin and DMSO. […] The inhibition results obtained from PAGE of samples prepared as described above, and containing ZG-1400a at 100 μM and 10 μM, or cerulenin or iodoacetamide at 1 mM, 100 μM, and 10 μM, are shown in Table 2.

The target of the next test is T2, tTG (Cavia cutleri, UniProt P08587).
T2 construct: purchased Sigma
T2 sequence (P08587 1-690): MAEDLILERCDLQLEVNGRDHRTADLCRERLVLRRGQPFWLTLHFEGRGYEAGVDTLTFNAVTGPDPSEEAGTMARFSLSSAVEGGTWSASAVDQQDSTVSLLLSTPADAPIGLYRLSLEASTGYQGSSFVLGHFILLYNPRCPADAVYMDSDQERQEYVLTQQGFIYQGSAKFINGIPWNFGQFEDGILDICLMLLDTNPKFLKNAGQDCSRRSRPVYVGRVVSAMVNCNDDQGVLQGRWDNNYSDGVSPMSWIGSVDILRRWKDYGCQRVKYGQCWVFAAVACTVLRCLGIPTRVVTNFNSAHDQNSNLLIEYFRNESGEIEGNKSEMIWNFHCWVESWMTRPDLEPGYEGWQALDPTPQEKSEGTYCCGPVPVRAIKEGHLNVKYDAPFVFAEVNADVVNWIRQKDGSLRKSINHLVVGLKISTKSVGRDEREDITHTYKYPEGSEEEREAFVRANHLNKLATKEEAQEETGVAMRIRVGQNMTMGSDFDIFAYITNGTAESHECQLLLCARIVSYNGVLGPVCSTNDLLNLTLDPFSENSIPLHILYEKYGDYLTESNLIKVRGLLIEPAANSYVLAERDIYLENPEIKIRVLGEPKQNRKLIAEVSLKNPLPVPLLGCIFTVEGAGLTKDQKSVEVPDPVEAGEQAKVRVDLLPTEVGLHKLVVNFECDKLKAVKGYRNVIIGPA
Nature of the test: Fibrinogen clotting assay, tTG (alpha bands scanned). It is filed as biochemical. As to conditions: read-out: % tTG Inhibition. The procedure:
as §1, §2, §3, §4, §5

Where [1] appears, read: 10 μM, gamma-gamma bands, densitometer.
Where [2] appears, read: 100 μM, gamma-gamma bands, densitometer.
The mark [3] stands for this setting: 10 μM, alpha bands, densitometer.
Where [4] appears, read: 100 μM, alpha bands, densitometer.

For the compound `CC=CCC=CCCC(=O)C1OC1C(N)=O` (stereo not shown) [Cerulenin, 2,3-epoxy-4-oxo-7,10-dodecadienamide], the inhibition (in general, the percentage by which the read-out fell short of the control) at 10 µM at FXIIIa (setting [1]) turned out to be 8%; on tTG (setting [3]) it was 30%. Moreover, the inhibition at 100 µM at FXIIIa (setting [2]) worked out at 38%; at tTG (setting [4]), 79%. Also, the inhibition at 1000 µM at FXIIIa (1 mM, gamma-gamma bands, densitometer) came out at 100%; at tTG (1 mM, alpha bands, densitometer) it was 94%.
As to `NC(=O)CI` [Iodoacetamide, iodoacetamide], on FXIIIa, the inhibition at 10 µM is 66%, the inhibition at 100 µM came to 100% and the inhibition at 1000 µM was 100%. In addition, on tTG, the inhibition at 10 µM stood at 72%, the inhibition at 100 µM is 68% and the inhibition at 1000 µM is 60%.
With `C[C@@H]1CCC/C=C\C(=O)Cc2cc(O)cc(O)c2C(=O)O1` [ZG-1400, R(-) enantiomer of cis-resorcylide], the inhibition at 10 µM on FXIIIa (setting [1]) was 66%; at tTG (setting [3]), 80%. Besides, the values for the inhibition at 100 µM on FXIIIa (setting [2]) and at tTG (setting [4]) were 100% and 83%, respectively.
